Assay results reported in ChEMBL document CHEMBL5634208, “Design and synthesis of Meldrum's acid based 7-azaindole anchored 1,2,3-triazole hybrids as anticancer agents” (RSC Med Chem, 2024).
One block for each molecule: values may come before it. Active and inactive are the calls of the source. The calls are words filed in the database; no cut-off is given here.

Assays:
[1] = tested on: HepG2; experiment: Anticancer activity against human HepG2 cells assessed as inhibition of cell growth measured after 48 hrs by MTT assay; type: functional, cell-based; details: HepG2, 48 h
[2] = tested on: K562; experiment: Anticancer activity against human K562 cells assessed as inhibition of cell growth measured after 48 hrs by MTT assay; type: functional, cell-based; details: K562, 48 h
[3] = tested on: DU-145; experiment: Anticancer activity against human DU-145 cells assessed as inhibition of cell growth measured after 48 hrs by MTT assay; type: functional, cell-based; details: DU-145, 48 h
[4] = tested on: HeLa; experiment: Anticancer activity against human HeLa cells assessed as inhibition of cell growth measured after 48 hrs by MTT assay; type: functional, cell-based
[5] = Cytotoxicity against HEK293 cells assessed as inhibition of cell growth measured after 48 hrs by MTT assay; type: toxicity, cell-based; details: human
[6] = tested on: MCF7; experiment: Anticancer activity against human MCF7 cells assessed as inhibition of cell growth measured after 48 hrs by MTT assay; type: functional, cell-based; details: MCF7, 48 h
[7] = tested on: HeLa; experiment: Induction of cell cycle arrest in human HeLa cells assessed as accumulation of cells at G2/M phase at 1 uM measured after 48 hrs by propidium iodide staining based flow cytometry analysis (reference value: 6.9%); type: functional
[8] = tested on: HeLa; experiment: Induction of apoptosis in human HeLa cells assessed as late apoptotic cells at 5 uM measured after 48 hrs by annexin V-FITC based propidium iodide dual staining based flow cytometry analysis (reference value: 3.5%); type: functional
[9] = tested on: K562; experiment: Downregulation of EGFR expression in human K562 cells measured after 48 hrs by RT-qPCR analysis; type: functional, cell-based; details: dose 1-5 µM
[10] = tested on: HeLa; experiment: Induction of apoptosis in human HeLa cells assessed as necrotic cells at 5 uM measured after 48 hrs by annexin V-FITC based propidium iodide dual staining based flow cytometry analysis (reference value: 1.0%); type: functional
[11] = tested on: HeLa; experiment: Induction of apoptosis in human HeLa cells assessed as nuclear condensation at 1 to 5 uM measured after 48 hrs by Hoechst staining based fluorescent microscopic analysis; type: functional, cell-based; details: dose 1-5 µM
[12] = tested on: HeLa; experiment: Induction of apoptosis in human HeLa cells assessed as early apoptotic cells at 5 uM measured after 48 hrs by annexin V-FITC based propidium iodide dual staining based flow cytometry analysis (reference value: 13.8%); type: functional
[13] = tested on: HeLa; experiment: Induction of cell cycle arrest in human HeLa cells assessed as accumulation of cells at G0/G1 phase at 5 uM measured after 48 hrs by propidium iodide staining based flow cytometry analysis (reference value: 85.6%); type: functional
[14] = tested on: HeLa; experiment: Induction of cell cycle arrest in human HeLa cells assessed as accumulation of cells at S phase at 5 uM measured after 48 hrs by propidium iodide staining based flow cytometry analysis (reference value: 1.0%); type: functional
[15] = tested on: HeLa; experiment: Induction of cell cycle arrest in human HeLa cells assessed as accumulation of cells at G0/G1 phase at 1 uM measured after 48 hrs by propidium iodide staining based flow cytometry analysis (reference value: 85.6%); type: functional
[16] = tested on: HeLa; experiment: Induction of apoptosis in human HeLa cells assessed as early apoptotic cells at 1 uM measured after 48 hrs by annexin V-FITC based propidium iodide dual staining based flow cytometry analysis (reference value: 13.8%); type: functional
[17] = tested on: HeLa; experiment: Induction of cell cycle arrest in human HeLa cells assessed as accumulation of cells at G2/M phase at 5 uM measured after 48 hrs by propidium iodide staining based flow cytometry analysis (reference value: 6.9%); type: functional
[18] = tested on: HeLa; experiment: Induction of apoptosis in human HeLa cells assessed as late apoptotic cells at 1 uM measured after 48 hrs by annexin V-FITC based propidium iodide dual staining based flow cytometry analysis (reference value: 3.5%); type: functional
[19] = tested on: HeLa; experiment: Induction of apoptosis in human HeLa cells assessed as viable cells at 5 uM measured after 48 hrs by annexin V-FITC based propidium iodide dual staining based flow cytometry analysis (reference value: 81.7%); type: functional; details: read-out: Activity
[20] = tested on: HeLa; experiment: Induction of cell cycle arrest in human HeLa cells assessed as accumulation of cells at subG1 phase at 5 uM measured after 48 hrs by propidium iodide staining based flow cytometry analysis (reference value: 6.8%); type: functional
[21] = tested on: HeLa; experiment: Induction of cell cycle arrest in human HeLa cells assessed as accumulation of cells at subG1 phase at 1 uM measured after 48 hrs by propidium iodide staining based flow cytometry analysis (reference value: 6.8%); type: functional
[22] = tested on: HeLa; experiment: Induction of apoptosis in human HeLa cells assessed as viable cells at 1 uM measured after 48 hrs by annexin V-FITC based propidium iodide dual staining based flow cytometry analysis (reference value: 81.7%); type: functional; details: read-out: Activity
[23] = tested on: HeLa; experiment: Induction of apoptosis in human HeLa cells assessed as necrotic cells at 1 uM measured after 48 hrs by annexin V-FITC based propidium iodide dual staining based flow cytometry analysis (reference value: 1.0%); type: functional
[24] = tested on: K562; experiment: Downregulation of MCL-1 expression in human K562 cells measured after 48 hrs by RT-qPCR analysis; type: functional, cell-based; details: dose 1-5 µM
[25] = tested on: HeLa; experiment: Induction of cell cycle arrest in human HeLa cells assessed as accumulation of cells at S phase at 1 uM measured after 48 hrs by propidium iodide staining based flow cytometry analysis (reference value: 1.0%); type: functional
[26] = tested on: K562; experiment: Downregulation of EGFR expression in human K562 cells at 1 to 5 uM measured after 48 hrs by RT-qPCR analysis; type: functional, cell-based; details: dose 1-5 µM
[27] = tested on: K562; experiment: Downregulation of MCL-1 expression in human K562 cells at 1 to 5 uM measured after 48 hrs by RT-qPCR analysis; type: functional, cell-based; details: dose 1-5 µM

Structure (SMILES): CC1(C)OC(=O)C(=Cc2cn(Cc3cn(-c4ccc(Br)cc4F)nn3)c3ncccc23)C(=O)O1
IC50 [1]: 27.8 µM
IC50 [2]: 19.1 µM
IC50 [3]: 22.6 µM
IC50 [4]: 10.3 µM
IC50 at 48 h [5]: 90.8 µM
IC50 [6]: 19.9 µM

Structure (SMILES): CC1(C)OC(=O)C(=Cc2cn(Cc3cn(-c4ccccc4)nn3)c3ncccc23)C(=O)O1
IC50 [1]: 29.2 µM
IC50 [2]: 20.2 µM
IC50 [3]: 49.3 µM
IC50 [4]: 21.3 µM
IC50 at 48 h [5]: > 100 µM
IC50 [6]: 28.3 µM

Structure (SMILES): COc1ccc(-n2cc(Cn3cc(C=C4C(=O)OC(C)(C)OC4=O)c4cccnc43)nn2)cc1
IC50 [1]: 42.1 µM
IC50 [2]: 16.4 µM
IC50 [3]: 33.8 µM
IC50 [4]: 15.9 µM
IC50 at 48 h [5]: 99.7 µM
IC50 [6]: 36.1 µM

Structure (SMILES): CC1(C)OC(=O)C(=Cc2cn(Cc3cn(-c4cccc(Cl)c4)nn3)c3ncccc23)C(=O)O1
IC50 [1]: 26.6 µM
IC50 [2]: 17.2 µM
IC50 [3]: 28.4 µM
IC50 [4]: 12.8 µM
IC50 at 48 h [5]: > 100 µM
IC50 [6]: 20.1 µM

Structure (SMILES): CC1(C)OC(=O)C(=Cc2cn(Cc3cn(-c4cc(Cl)cc(Cl)c4)nn3)c3ncccc23)C(=O)O1
IC50 [1]: 49.4 µM
IC50 [2]: 26.8 µM
IC50 [3]: 37.8 µM
IC50 [4]: 25 µM
IC50 at 48 h [5]: > 100 µM
IC50 [6]: 25.4 µM

Structure (SMILES): COc1cc(OC)cc(-n2cc(Cn3cc(C=C4C(=O)OC(C)(C)OC4=O)c4cccnc43)nn2)c1
IC50 [1]: 28.4 µM
IC50 [2]: 14.5 µM
IC50 [3]: 14.7 µM
IC50 [4]: 9.68 µM
IC50 at 48 h [5]: 81.7 µM
IC50 [6]: 20.2 µM

Structure (SMILES): CC1(C)OC(=O)C(=Cc2cn(Cc3cn(-c4ccc(Cl)c(Cl)c4)nn3)c3ncccc23)C(=O)O1
IC50 [1]: 26.1 µM
IC50 [2]: 20.2 µM
IC50 [3]: 33.8 µM
IC50 [4]: 16.6 µM
IC50 at 48 h [5]: > 100 µM
IC50 [6]: 24.2 µM

Structure (SMILES): CC1(C)OC(=O)C(=Cc2cn(Cc3cn(-c4ccccc4Cl)nn3)c3ncccc23)C(=O)O1
IC50 [1]: 21.9 µM
IC50 [2]: 16.1 µM
IC50 [3]: 15.4 µM
IC50 [4]: 12.8 µM
IC50 at 48 h [5]: > 100 µM
IC50 [6]: 18 µM

Structure (SMILES): COc1cccc2c1C(=O)c1c(O)c3c(c(O)c1C2=O)C[C@@](O)(C(=O)CO)C[C@@H]3O[C@H]1C[C@H](N)[C@H](O)[C@H](C)O1 [DOXORUBICIN]
Activity [7]: 34.2%
Activity [26]: Active
Activity [8]: 4.8%
Activity [10]: 0.5%
IC50 [2]: 1.23 µM
Activity [12]: 30.3%
Activity [13]: 40.3%
Activity [14]: 2.6%
Activity [15]: 60%
Activity [16]: 19.6%
Activity [17]: 52.7%
Activity [18]: 3.1%
Activity [27]: Active
viability at 5 µM [19]: 64.4%
Activity [20]: 3.7%
Activity [21]: 4.2%
viability at 1 µM [22]: 75.6%
Activity [23]: 1.7%
IC50 [6]: 1.48 µM
Activity [25]: 3%

Structure (SMILES): COc1cc(-n2cc(Cn3cc(C=C4C(=O)OC(C)(C)OC4=O)c4cccnc43)nn2)cc(OC)c1OC
IC50 [1]: 20.1 µM
IC50 [2]: 14.3 µM
IC50 [3]: 18.8 µM
IC50 [4]: 9.52 µM
IC50 at 48 h [5]: 76.6 µM
IC50 [6]: 13.1 µM

Continued, in another order:

IC50 [1]: 27.9 µM
IC50 [2]: 16.8 µM
IC50 [3]: 32.1 µM
IC50 [4]: 16.2 µM
IC50 [6]: 15.2 µM
Structure (SMILES): CC1(C)OC(=O)C(=Cc2cn(Cc3cn(-c4ccc(I)cc4)nn3)c3ncccc23)C(=O)O1
IC50 at 48 h [5]: > 100 µM

IC50 [1]: 9.97 µM
IC50 [2]: 6.03 µM
IC50 [3]: 12.4 µM
IC50 [4]: 4.44 µM
IC50 [6]: 6.67 µM
Structure (SMILES): Cc1ccc(-n2cc(Cn3cc(C=C4C(=O)OC(C)(C)OC4=O)c4cccnc43)nn2)cc1
Activity [7]: 20.7%
Activity [8]: 4.6%
Activity [9]: Dose-Dependent Effect
Activity [10]: 0.3%
Activity [11]: Active
Activity [12]: 39.7%
Activity [13]: 39.1%
Activity [14]: 2.7%
Activity [15]: 72.2%
Activity [16]: 16.8%
Activity [17]: 54.4%
Activity [18]: 2.5%
viability at 5 µM [19]: 55.4%
Activity [20]: 3.1%
Activity [21]: 6%
viability at 1 µM [22]: 79.2%
Activity [23]: 1.5%
IC50 at 48 h [5]: > 100 µM
Activity [24]: Dose-Dependent Effect
Activity [25]: 2.1%

IC50 [1]: 30.1 µM
IC50 [2]: 21.4 µM
IC50 [3]: 27.7 µM
IC50 [4]: 19.4 µM
IC50 [6]: 25.8 µM
Structure (SMILES): CC1(C)OC(=O)C(=Cc2cn(Cc3cn(-c4ccc([N+](=O)[O-])cc4)nn3)c3ncccc23)C(=O)O1
IC50 at 48 h [5]: > 100 µM

IC50 [1]: 37 µM
IC50 [2]: 19.1 µM
IC50 [3]: 22.8 µM
IC50 [4]: 18.9 µM
IC50 [6]: 20.8 µM
Structure (SMILES): CC1(C)OC(=O)C(=Cc2cn(Cc3cn(-c4ccc(F)cc4)nn3)c3ncccc23)C(=O)O1
IC50 at 48 h [5]: > 100 µM

IC50 [1]: 24.5 µM
IC50 [2]: 20.5 µM
IC50 [3]: 22.6 µM
IC50 [4]: 16.7 µM
IC50 [6]: 22.9 µM
Structure (SMILES): CC1(C)OC(=O)C(=Cc2cn(Cc3cn(-c4ccc(Cl)cc4)nn3)c3ncccc23)C(=O)O1
IC50 at 48 h [5]: 97.3 µM

IC50 [1]: 29.1 µM
IC50 [2]: 12.5 µM
IC50 [3]: 15.4 µM
IC50 [4]: 6.87 µM
IC50 [6]: 7.32 µM
Structure (SMILES): CC1(C)OC(=O)C(=Cc2cn(Cc3cn(-c4ccc(Br)cc4)nn3)c3ncccc23)C(=O)O1
IC50 at 48 h [5]: 93.9 µM
